“And” between values parts separate entries of the source, which are not always exact repeats. Identical values can stand only once. Like-named read-outs stand apart in the source and are kept apart here.
Legend:
Assay in all cases: BLI direct binding
Design in all cases: species or system A. thaliana
FAMA_ACTL = biological target: T1, FAMA_ACTL (Arabidopsis thaliana, UniProt Q56YJ8)
T1 construct: FAMA-ACTL (306-414); GST (N, cleaved yes); made in house; host or cells: E. coli BL21
From the text: (§1) A. thaliana SCRM (1-494), ΔNSPCH (98-364), MUTE (1-202), ΔNFAMA (190-414), MUTEΔC (1-114), MUTER133A_R134A, MUTEE162A_E163A, MUTER133A_R134A_E162A_E163A, SCRM-ACTL (405-494), MUTE-ACTL (114-202), SPCH-ACTL (285-364), FAMA-ACTL (306-414), MUTE_ACTLR133A_R134A, MUTE_ACTLE162A_E163A, MUTE_ACTLR133A_R134A_E162A_E163A were cloned into pGEX-4T-1 vector with an N-terminal GST tag and a thrombin cleavage sequence. For protein expression, the constructs were transformed into E. coli strain BL21. For each transformant, a single colony was selected and incubated in 10 ml LB liquid media. The overnight-incubated E. coli suspensions were transferred to 1 L LB medium and incubated at 37 °C for around 2 h until the OD600 reached 0.4–0.6. The isopropyl β-D-1-thiogalactopyranoside ([…] of final concentration) was added to the cultures and the strains were incubated at 22 °C for a further 18 h. GST-fused proteins were purified using glutathione agarose resin. The soluble portion of the cell lysate was loaded onto a GST-Sepharose column. Nonspecifically bound proteins were removed by washing the column with 20 mM Tris pH 8.0, 200 mM NaCl. The bound GST-fused protein was eluted with 10 mm glutathione and 20 mM Tris pH 8.0, 200 mM NaCl. The GST-fused proteins were exchanged with phosphate-buffered saline buffer, and then the solution was treated with 50 μg of thrombin for 10–12 h at 16 ^οC. The GST portion of the protein was cleaved during thrombin digestion, and then the whole solution was reloaded onto the glutathione S-transferase column to obtain pure protein. The purified proteins were further purified by gel filtration on a Superdex-200 (GE) column using fast protein liquid chromatography and phosphate buffer (pH 7.2) as the eluent. The purity of the protein was checked by SDS-PAGE. For detailed lists of oligo DNA and plasmid information, see Supplementary Tables 5, 6, respectively.
(§2) The binding affinities of SCRM to MUTE / MUTER133A_R134A / MUTEE162A_E163A / MUTER133A_R134A_E162A_E163A in presence and absence of Stomidazolone (3) and its analogues (AYSJ1059 (5) and AYSJ1061 (6)), and Stomidazolone / AYSJ1059 / AYSJ1061 interactions with GST-tagged SCRM, MUTE, SPCH, FAMA, MUTE ΔACTL, MUTE_ACTL, SCRM_ACTL, SPCH_ACTL and FAMA_ACTL, MUTER133A_134A, MUTEE162A_E163A, MUTER133A_R134A_E162A_E163A were measured using the Octet Red96 system (ForteBio, Pall Life Sciences) following the manufacturer’s protocols. The optical probes coated with anti-GST were first loaded with 500 nM GST tagged proteins before kinetic binding analyses. The experiment was performed in 96-well plates maintained at 30 °C. Each well was loaded with 200 μL reaction volume for the experiment. The binding buffer used in these experiments contained 1× PBS supplemented with 2% DMSO, 0.02% Tween20. The concentrations of the Stomidazolone as the analyte in the binding buffer were 100, 50, 25, 12.5, 6.25, 3.12, and 1.56 μM. There was no binding of the analytes to the unloaded probes as shown by the control wells. Binding kinetics to all seven concentrations of the analytes were measured simultaneously using default parameters on the instrument. The data were analyzed using the Octet data analysis software. The association and dissociation curves were fit with the 1:1 homogeneous ligand model. The kobs (observed rate constant) values were used to calculate Kd, with steady-state analysis of the direct binding. See Supplementary Table 3 for details.

MUTE_ACTLR133A_R134A = biological target: T2, MUTE_ACTLR133A_R134A (Arabidopsis thaliana, UniProt Q9M8K6, R133A/R134A); conditions: for koff: read-out: kdis(1/s), MUTE_R133A_R134A on Anti-GST sensor
T2 construct: MUTE-ACTL (114-202); made in house; host or cells: E. coli BL21
From the text: as §1, §2

SCRM_ACTL = biological target: T3, SCRM_ACTL (Arabidopsis thaliana, UniProt Q9LSE2)
T3 construct: SCRM-ACTL (405-494); GST (N, cleaved yes); made in house; host or cells: E. coli BL21
T3 sequence (Q9LSE2 405-494): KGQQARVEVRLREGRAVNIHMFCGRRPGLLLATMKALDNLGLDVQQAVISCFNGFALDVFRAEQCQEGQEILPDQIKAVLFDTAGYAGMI
From the text: as §1, §2

[1] = BLI steady state, read-out: KD (SS)
[2] = MUTE_R133A_R134A on Anti-GST sensor, Stomid 3.12 µM, rep-1, rep-2
[3] = MUTE_R133A_R134A on Anti-GST sensor, Stomid 6.25 µM, rep-1, rep-2
[4] = MUTE_R133A_R134A on Anti-GST sensor, Stomid 12.5 µM, rep-1, rep-2
[5] = MUTE_R133A_R134A on Anti-GST sensor, Stomid 25 µM, rep-1, rep-2
[6] = MUTE_R133A_R134A on Anti-GST sensor, Stomid 50 µM, rep-1, rep-2
[7] = MUTE_R133A_R134A on Anti-GST sensor, Stomid 100 µM, rep-1, rep-2
[8] = MUTE_R133A_R134A on Anti-GST sensor, Stomid 200 µM, rep-1, rep-2

T2 sequence (Q9M8K6 114-202 R133A/R134A): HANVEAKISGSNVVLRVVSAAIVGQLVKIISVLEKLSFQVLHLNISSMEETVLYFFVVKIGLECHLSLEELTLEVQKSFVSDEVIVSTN
T1 sequence (Q56YJ8 306-414): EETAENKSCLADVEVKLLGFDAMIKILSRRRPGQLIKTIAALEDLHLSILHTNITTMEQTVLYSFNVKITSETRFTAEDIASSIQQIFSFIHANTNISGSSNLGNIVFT

Q: How did the Kd (FAMA_ACTL; [1]) turn out when `O=C1C(c2ccccc2)=NC(NS(=O)(=O)c2ccccc2)(c2ccccc2)N1S(=O)(=O)c1ccccc1` (stereo not drawn) [Stomidazolone] was run?
A: 105 ± 13.8 µM

Q: And the Kd (FAMA_ACTL; BLI, read-out: KD)?
A: 95.2 ± 3.5 µM

Q: What about the Kd (MUTE_ACTLR133A_R134A; BLI, MUTE_ACTL R133A_R134A) of the same compound?
A: 120 ± 5.5 µM

Q: What about the Kd (MUTE_ACTLR133A_R134A; [2]) of the same compound?
A: 127 µM and 126 µM

Q: And the RMax (MUTE_ACTLR133A_R134A; [2])?
A: 0.03 and 0.048

Q: What about the “Req/Rmax(%)” value (MUTE_ACTLR133A_R134A; [2]) of the same compound?
A: 93.1% and 100%

Q: And the Response (MUTE_ACTLR133A_R134A; [2])?
A: 0.027 and 0.0456

Q: And the Kd (MUTE_ACTLR133A_R134A; [3])?
A: 128 µM and 127 µM

Q: What about the RMax (MUTE_ACTLR133A_R134A; [3]) of the same compound?
A: 0.06 and 0.08

Q: And the “Req/Rmax(%)” value (MUTE_ACTLR133A_R134A; [3])?
A: 100%

Q: What about the Response (MUTE_ACTLR133A_R134A; [3]) of the same compound?
A: 0.058 and 0.079

Q: What about the “kobs” value (MUTE_ACTLR133A_R134A; [3]) of the same compound?
A: 0.00193 s⁻¹ and 0.00258 s⁻¹

Q: What about the “kon” value (MUTE_ACTLR133A_R134A; [3]) of the same compound?
A: 976 M⁻¹ s⁻¹

Q: And the Kd (MUTE_ACTLR133A_R134A; [4])?
A: 126 µM and 124 µM

Q: What about the RMax (MUTE_ACTLR133A_R134A; [4]) of the same compound?
A: 0.092 and 0.085

Q: What about the “Req/Rmax(%)” value (MUTE_ACTLR133A_R134A; [4]) of the same compound?
A: 93.1% and 100%

Q: What about the Response (MUTE_ACTLR133A_R134A; [4]) of the same compound?
A: 0.092 and 0.081

Q: And the “kdis” value (MUTE_ACTLR133A_R134A; [4])?
A: 0.124 s⁻¹

Q: What about the Kd (MUTE_ACTLR133A_R134A; [5]) of the same compound?
A: 128 µM and 126 µM

Q: What about the “Req/Rmax(%)” value (MUTE_ACTLR133A_R134A; [5]) of the same compound?
A: 78.8% and 93.9%

Q: What about the “kdis” value (MUTE_ACTLR133A_R134A; [5]) of the same compound?
A: 0.123 s⁻¹

Q: And the “kobs” value (MUTE_ACTLR133A_R134A; [5])?
A: 0.00186 s⁻¹ and 0.00281 s⁻¹

Q: What about the “kon” value (MUTE_ACTLR133A_R134A; [5]) of the same compound?
A: 975 M⁻¹ s⁻¹

Q: What about the Kd (MUTE_ACTLR133A_R134A; [6]) of the same compound?
A: 127 µM and 125 µM

Q: And the RMax (MUTE_ACTLR133A_R134A; [6])?
A: 0.195 and 0.225

Q: And the Response (MUTE_ACTLR133A_R134A; [6])?
A: 0.193 and 0.2221

Q: What about the “kdis” value (MUTE_ACTLR133A_R134A; [6]) of the same compound?
A: 0.122 s⁻¹

Q: And the “kon” value (MUTE_ACTLR133A_R134A; [6])?
A: 976 M⁻¹ s⁻¹

Q: And the Kd (MUTE_ACTLR133A_R134A; [7])?
A: 130 µM and 127 µM

Q: What about the RMax (MUTE_ACTLR133A_R134A; [7]) of the same compound?
A: 0.244 and 0.289

Q: And the “Req/Rmax(%)” value (MUTE_ACTLR133A_R134A; [7])?
A: 96.5% and 96.6%

Q: What about the Response (MUTE_ACTLR133A_R134A; [7]) of the same compound?
A: 0.242 and 0.284

Q: And the “kobs” value (MUTE_ACTLR133A_R134A; [7])?
A: 0.00717 s⁻¹ and 0.00706 s⁻¹

Q: And the “kon” value (MUTE_ACTLR133A_R134A; [7])?
A: 980 M⁻¹ s⁻¹

Q: What about the Kd (MUTE_ACTLR133A_R134A; [8]) of the same compound?
A: 127 µM and 130 µM

Q: And the RMax (MUTE_ACTLR133A_R134A; [8])?
A: 0.344 and 0.38

Q: What about the “Req/Rmax(%)” value (MUTE_ACTLR133A_R134A; [8]) of the same compound?
A: 99.9% and 99.8%

Q: What about the Response (MUTE_ACTLR133A_R134A; [8]) of the same compound?
A: 0.341 and 0.375

Q: And the “kdis” value (MUTE_ACTLR133A_R134A; [8])?
A: 0.125 s⁻¹

Q: And the “kobs” value (MUTE_ACTLR133A_R134A; [8])?
A: 0.0285 s⁻¹ and 0.0284 s⁻¹

Q: And the “kon” value (MUTE_ACTLR133A_R134A; [8])?
A: 960 M⁻¹ s⁻¹

Q: What about the koff (MUTE_ACTLR133A_R134A; Stomid 3.12 µM, rep-1, rep-2) of the same compound?
A: 0.122 s⁻¹

Q: And the koff (MUTE_ACTLR133A_R134A; Stomid 6.25 µM, rep-1, rep-2)?
A: 0.124 s⁻¹

Q: What about the koff (MUTE_ACTLR133A_R134A; Stomid 12.5 µM, rep-1, rep-2) of the same compound?
A: 0.125 s⁻¹

Q: What about the koff (MUTE_ACTLR133A_R134A; Stomid 25 µM, rep-1, rep-2) of the same compound?
A: 0.125 s⁻¹

Q: And the koff (MUTE_ACTLR133A_R134A; Stomid 50 µM, rep-1, rep-2)?
A: 0.123 s⁻¹

Q: And the koff (MUTE_ACTLR133A_R134A; Stomid 100 µM, rep-1, rep-2)?
A: 0.125 s⁻¹

Q: What about the koff (MUTE_ACTLR133A_R134A; Stomid 200 µM, rep-1, rep-2) of the same compound?
A: 0.126 s⁻¹

Q: What about the kon (MUTE_ACTLR133A_R134A; read-out: kon(1/Ms), MUTE_R133A_R134A on Anti-GST sensor, Stomid 3.12 µM, rep-1, rep-2) of the same compound?
A: 966 M⁻¹ s⁻¹

Q: And the kon (MUTE_ACTLR133A_R134A; read-out: kon(1/Ms), MUTE_R133A_R134A on Anti-GST sensor, Stomid 6.25 µM, rep-1, rep-2)?
A: 970 M⁻¹ s⁻¹

Q: And the kon (MUTE_ACTLR133A_R134A; read-out: kon(1/Ms), MUTE_R133A_R134A on Anti-GST sensor, Stomid 12.5 µM, rep-1, rep-2)?
A: 990 M⁻¹ s⁻¹

Q: And the kon (MUTE_ACTLR133A_R134A; read-out: kon(1/Ms), MUTE_R133A_R134A on Anti-GST sensor, Stomid 25 µM, rep-1, rep-2)?
A: 980 M⁻¹ s⁻¹

Q: What about the kon (MUTE_ACTLR133A_R134A; read-out: kon(1/Ms), MUTE_R133A_R134A on Anti-GST sensor, Stomid 50 µM, rep-1, rep-2) of the same compound?
A: 970 M⁻¹ s⁻¹

Q: What about the kon (MUTE_ACTLR133A_R134A; read-out: kon(1/Ms), MUTE_R133A_R134A on Anti-GST sensor, Stomid 100 µM, rep-1, rep-2) of the same compound?
A: 960 M⁻¹ s⁻¹

Q: What about the kon (MUTE_ACTLR133A_R134A; read-out: kon(1/Ms), MUTE_R133A_R134A on Anti-GST sensor, Stomid 200 µM, rep-1, rep-2) of the same compound?
A: 990 M⁻¹ s⁻¹

Q: And the Kd (SCRM_ACTL; [1])?
A: 76 ± 6.8 µM

Q: What about the Kd (SCRM_ACTL; BLI, read-out: KD) of the same compound?
A: 78.2 ± 1.2 µM
